Where “and” joins values, the source holds several entries; their conditions need not be identical. Equal entries are not always repeated.
Assays:
[1] = xn = mol fraction of the nth substance listed

CC/C(C)=N/O
101.3 kPa
Details	viscosity
293.15 K	4.767 mPa·s
298.15 K	4.016 mPa·s and 4.02 mPa·s
303.15 K	3.437 mPa·s

CCn1cc[n+](CCOC)c1.N#C[S-]
100 kPa
Details	viscosity [mPa·s]
293.15 K	70.77
298.15 K	55.77
303.15 K	44.34
308.15 K	36
313.15 K	29.73
318.15 K	24.89

CC(C)C1CCCCC1
100 kPa
Details	viscosity
293.15 K	1.098 mPa·s
303.15 K	0.949 mPa·s and 0.95 mPa·s
308.15 K	0.885 mPa·s and 0.889 mPa·s
313.15 K	0.83 mPa·s and 0.833 mPa·s
318.15 K	0.781 mPa·s and 0.783 mPa·s
323.15 K	0.736 mPa·s

CCCCCBr
101 kPa
Details	viscosity [mPa·s]
293.15 K	0.798
303.15 K	0.709
308.15 K	0.6509
313.15 K	0.637
323.15 K	0.574

O=CC(Br)(Br)Br
101.33 kPa
Details	viscosity [mPa·s]
293.15 K	6.81
313.15 K	3.72

C=CC[n+]1ccn(C)c1.[Cl-]
Details	viscosity [mPa·s]
298.15 K, 101 kPa	254.5

COC(=O)c1ccccc1C(=O)OC
101 kPa
Details	viscosity [mPa·s]
293.15 K	17.63
298.15 K	13.8
303.15 K	11.07
308.15 K	9.064
313.15 K	7.558
318.15 K	6.4
323.15 K	5.493

CC(Cl)(Cl)Cl
viscosity
Details	101 kPa	101.3 kPa	101.32 kPa	101.33 kPa
303.15 K	0.7243 mPa·s and 0.7245 mPa·s	0.7275 mPa·s	0.642 mPa·s and 0.7243 mPa·s	0.7243 mPa·s
313.15 K	–	–	0.583 mPa·s	–

O=CO
viscosity
Details	293.15 K	298.15 K	303.15 K	308.15 K	313.15 K	318.15 K	323.15 K
101 kPa	–	–	1.43 mPa·s and 1.434 mPa·s (2×)	1.304 mPa·s	–	1.089 mPa·s	0.9767 mPa·s
101.33 kPa	1.959 mPa·s	1.51 mPa·s	1.36 mPa·s	1.25 mPa·s	1.291 mPa·s and 1.15 mPa·s	–	–

CCCCCCCCn1cc[n+](C)c1.[Cl][Fe-]([Cl])([Cl])[Cl]
101 kPa
Details	viscosity [mPa·s]
293.15 K	167
298.15 K	133.2
303.15 K	106
308.15 K	84.71
313.15 K	68.3
318.15 K	55.87
323.15 K	46.6

CCCC[N+](CCCC)(CCCC)CCCC.[OH-]
viscosity [mPa·s]
Details	298.15 K	303.15 K	308.15 K	313.15 K
100 kPa	6.69	6.49	6.29	6.13
101 kPa	6.69	6.49	6.29	6.13

CC(Cl)(Cl)Cl + CCCCCCO
[1], 298.15 K, 101.33 kPa
Details	viscosity [mPa·s]
x1 = 0.101	3.824
x1 = 0.2	3.188
x1 = 0.301	2.631
x1 = 0.402	2.142
x1 = 0.502	1.744
x1 = 0.601	1.43
x1 = 0.701	1.188
x1 = 0.8	1.002

O=CC(Br)(Br)Br + CCCCO
viscosity [mPa·s], [1], 101.33 kPa
Details	x1 = 0.1	x1 = 0.2	x1 = 0.3	x1 = 0.4	x1 = 0.5	x1 = 0.6	x1 = 0.7	x1 = 0.797	x1 = 0.899
293.15 K	4.71	6.92	10.15	15.97	22.38	21.27	15.08	11.21	9.11
313.15 K	2.56	3.84	4.96	7.06	8.81	8.39	6.2	4.97	4.21

CC(Cl)(Cl)Cl + CCCCO
[1], 298.15 K, 101 kPa
Details	viscosity [mPa·s]
x1 = 0.1022	2.187
x1 = 0.2068	1.872
x1 = 0.3061	1.611
x1 = 0.4067	1.372
x1 = 0.5174	1.164
x1 = 0.605	1.042
x1 = 0.6995	0.936
x1 = 0.7924	0.855
x1 = 0.9022	0.811

CCCCCCCCn1cc[n+](C)c1.[Cl][Fe-]([Cl])([Cl])[Cl] + CCOC(C)=O
viscosity [mPa·s], [1], 101 kPa
Details	x1 = 0.0999	x1 = 0.197	x1 = 0.2987	x1 = 0.3989	x1 = 0.4986	x1 = 0.6004	x1 = 0.6958	x1 = 0.7939	x1 = 0.8777
293.15 K	1.47	3.56	7.5	13.82	23.21	37.15	58.2	85.97	111.8
298.15 K	1.38	3.24	6.65	11.97	19.68	30.95	47.6	69.55	91.12
303.15 K	1.29	2.97	5.94	10.48	16.88	26.07	39.75	56.28	73.83
308.15 K	1.21	2.72	5.33	9.22	14.61	22.2	33.32	46.86	59.83
313.15 K	1.14	2.52	4.81	8.17	12.77	19.08	28.28	39.4	49.32
318.15 K	1.07	2.33	4.37	7.31	11.24	16.49	24.27	33.42	41.48
323.15 K	1.02	2.16	3.99	6.6	9.97	14.4	20.98	28.43	35.08
